A short description of data set [1]: Single dose dog PK, intramuscular and subcutaneous, monitored 56 days (Example 41). Type of data set: in vivo, Male Beagle dog. As to conditions: dose-normalized. The procedure: (§1) Animals. Animals (Male SD rats ˜200-250 g and Male Beagle dog ˜12-15 kg) were obtained from an approved vendor.
(§2) Animals were […] at least 12 hours prior to the administration. All animals had access to Certified Rodent and non-Rodent Diet ad libitum 4 hours post dosing.
(§3) Dose Formulation. The formulations were prepared on the day of dosing. Animals were dosed within four hours after the formulation is prepared. Two 20 μL aliquots of each formulation were removed from each of the formulation solutions, transferred into 1.5 mL of polypropylene microcentrifuge tubes and run dose validation by LC/UV or LC-MS/MS.
(§4) Dose Administration. For SC/IM dosing, the dose formulation was administered via subcutaneous/intramuscular injection respectively following facility SOPs.
(§5) Sample Collection. Approximately 200 μL blood was collected from saphenous vein at each time point for rats and 0.5 mL for rhesus macaques. All blood samples were transferred into microcentrifuge tubes containing 4 μL of K2EDTA (0.5M) as anti-coagulant and placed on wet ice until processed for plasma.
(§6) Blood/Plasma processing. Blood: Blood samples were processed for plasma by centrifugation at approximately 4° C., 3000 g 15 min within half an hour of collection. Plasma samples was stored in polypropylene tubes, quick frozen over dry ice and kept at −70±10° C. until LC/MS/MS analysis.
(§7) • LC-MS/MS methods for the quantitative determination of test compound in corresponded biological matrix was developed under non-GLP compliance. • A calibration curve with 8 non-zero calibration standards was applied for the method including LLOQ. • A set of QC samples consisting of low, middle, and high concentration was applied for the method. • The study sample analysis will be performed concurrently with a set of calibration standards and two sets of QC samples using the LC-MS/MS method (If sample numbers were more than 48, then two calibration curves with 2 sets of QC samples were applied). • Acceptance criteria: • Linearity: a minimum of 6 calibration standards was back calculated to within ±20% of their nominal values in plasma. • Accuracy: A minimum of 4 out of 6 QC samples was back calculated to within ±20% of their nominal values in plasma. • Specificity: The mean calculated concentration in the single blank matrix should be 0.5 times the LLOQ. • Sensitivity: the LLOQ will be tried to target 1˜3 ng/mL. • Carryover: the mean calculated carry-over concentration in the single blank matrix immediately after the highest standard injection should be LLOQ. If the carryover couldn't meet the criteria, then the percent of carryover should be estimated following in-house bioanalytical SOP.
(§8) Data Analysis. Plasma concentration versus time data was analyzed by non-compartmental approaches using the Phoenix WinNonlin 6.3 software program.
The aqueous suspension formulations were derived from 0.5% CMC-Na and 0.5% Tween 80. […] Micronized ETV-palmitate (D50=3.0 um; D90=10.5 um) and prodrug 36 (D50=7.0 um; D90=16.6 um) and non-micronized prodrug 11 (D50=4.4 um; D90=13.0 um) were used for this study.
The data are shown in graphic form in FIG. 12.

Data set [2] in a line: Single dose rat PK, intramuscular (Example 39). Type of data set: in vivo, Male SD rats. How it is done: as §1, §2, §3, §4, §5, §6, §7
Data Analysis. Plasma concentration versus time data was analyzed by non-compartmental approaches using the Phoenix WinNonlin 6.3 software program. Cmax, Tmax, T1/2, AUC(0-1), AUC(0-int), MRT(0-1), MRT(0-int), % F and graphs of plasma concentration versus time profile were reported.
Bis-DHA prodrug 9 (31 mg/kg equivalent dose of ETV) and ETV (20 mg/kg) were subjected to single dose rat PK studies via intramuscular route of administration. Non-micronized prodrug and ETV were used. […] Enhanced half-life and mean residence life were also observed for prodrug 9 making it suitable as a long-acting agent.
The data are shown in graphic form in FIG. 18.

For data set [3] the following is noted: male, beagle, dog, in vivo, 20 mg/kg. The procedure: as §1, §2, §3, §4, §5, §6, §7, §8
The aqueous suspension formulations were derived from 0.5% CMC-Na and 0.5% Tween 80. […] Micronized ETV (D50=2.4 um; D90=5.0 um) and prodrug 29 (D50=1.8 um; D90=4.0 um) and non-micronized prodrug 11 (D50=4.4 um; D90=13.0 um) were used for this study.

Like-named read-outs stand apart in the source and are kept apart here.

With `C=C1[C@H](CO)[C@@H](OC(=O)Cc2ccccc2)C[C@@H]1n1cnc2c(=O)[nH]c(N)nc21` [Prodrug 36], in data set [1] (single SC dose), the “d.n. AUC0-last” value turned out to be 1586 ng·h/mL/mg/kg and the “d.n. Cmax” value is 8.2 ng/mL/mg/kg.

In the case of `C=C1[C@H](CO)[C@@H](O)C[C@@H]1n1cnc2c(=O)[nH]c(N)nc21` [ETV, Entecavir], the “d.n. Cmax” value in data set [2] (in vivo, im) worked out at 91.65 ng/mL/mg/kg. In addition, in data set [2] (male, SD, in vivo), the Clast turned out to be 1.4 ng/mL and the “day of Clast” value was 5 days. Also, in data set [3], the Clast was found to be 0.2 ng/mL and the “day of Clast” value stood at 41 days. Also, in data set [3] (im), the AUC0-inf was 25.294 ± 2.044 µg·h/mL, the AUC0-last is 25.134 ± 1.97 µg·h/mL, the Cmax is reported as 2390 ± 219 ng/mL and the MRT0-inf turned out to be 30.8 ± 4.8 h. Also, in data set [3] (im), the T1/2 amounted to 438 ± 263 h and the Tmax is recorded as 2.3 ± 1.2 h.

Regarding `C=C1[C@H](COC(=O)CC/C=C\C/C=C\C/C=C\C/C=C\C/C=C\C/C=C\CC)[C@@H](OC(=O)CC/C=C\C/C=C\C/C=C\C/C=C\C/C=C\C/C=C\CC)C[C@@H]1n1cnc2c(=O)[nH]c(N)nc21` [Prodrug 9, (4Z,7Z,10Z,13Z,16Z,19Z)-(1S,2R,4S)-4-(2-amino-6-oxo-1H-purin-9(6H)-yl)-2-(((4Z,7Z,10Z,13Z,16Z,19Z)-docosa-4,7,10,13,16,19-hexaenoyloxy)methyl)-3-methylenecyclopentyl docosa-4,7,10,13,16,19-hexaenoate], the “half-life and mean residence life” value in data set [2] (single IM dose, compared with ETV) is recorded as “Enhanced”. For the same compound, in data set [2] (single IM dose, dose-normalized), the “d.n. Cmax” value was 0.37 ng/mL/mg/kg.

In the case of `C=C1[C@H](COC(=O)Cc2ccccc2)[C@@H](OC(=O)Cc2ccccc2)C[C@@H]1n1cnc2c(=O)[nH]c(N)nc21` [Prodrug 11, ((1R,3S,5S)-3-(2-amino-6-oxo-1H-purin-9(6H)-yl)-2-methylene-5-(2-phenylacetoxy)cyclopentyl)methyl 2-phenylacetate], in data set [1] (single IM dose), the “d.n. AUC0-last” value stood at 1286 ng·h/mL/mg/kg and the “d.n. Cmax” value is 2.2 ng/mL/mg/kg. For the same compound, in data set [1] (single SC dose), the “d.n. AUC0-last” value was determined as 874 ng·h/mL/mg/kg and the “d.n. Cmax” value turned out to be 1.8 ng/mL/mg/kg.

The values above are taken from patent publication US20240190878A1, “ANTIVIRAL PRODRUGS OF ETV AND FORMULATIONS THEREOF” (THE SCRIPPS RESEARCH INSTITUTE, priority 2022, published 2024).
